Holding throughout (format): biochemical
The target of test [1] is CDK4/cyclin D1 (Homo sapiens (Human), UniProt P11802). In words: CDK4/Cyclin D1 enzymatic activity assay (Lance TR-FRET). The essentials:
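Recombinant His6-CDK4/GST-cyclin D1 (Sf21-expressed), 0.3 nM, phosphorylated 175 nM pRb152 with 3 μM ATP in HEPES pH 7.5, Mg/Mn buffer, 2% DMSO, 60 min at room temperature. Compound range 0.005-10 μM. EDTA-quenched; pRb S780 phosphorylation read by TR-FRET (Eu anti-rabbit/APC-streptavidin) for IC50.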
In general terms: Time-resolved FRET reads energy transfer from a long-lived donor to a nearby acceptor.

The target of test [2] is CDK1/cyclin B (Homo sapiens (Human), UniProt P06493). In words: CDK1/Cyclin B enzymatic activity assay (IMAP-FP). From the text:
A 384-well microtiter IMAP-FPT™ (Molecular Devices Trade Mark Technology) endpoint assay was used for CDK1/cyclin B kinase activity measurements. The same assay was used for IC50 determination of small molecule inhibitors.

For test [3], the target named is CDK2/cyclin A (Homo sapiens (Human), UniProt P24941). In words: CDK2/Cyclin A enzymatic activity assay (IMAP-FP).
Where [4] appears, read: Table 2, 3 μM ATP, read-out: CDK4.
Where [5] appears, read: Table 4, read-out: IC50 (μM) CDK4.
Setting [6] is: Table 2, 20 μM ATP, read-out: CDK1.
The mark [7] stands for this setting: Table 4, read-out: IC50 (μM) CDK1.
Where [8] appears, read: Table 4, read-out: IC50 (μM) CDK2.

Read-outs that look alike come from different tables or passages of the source. Where only a bound is given, the exact number is not on record here.

Sequence of CDK4/cyclin D1 (P11802 whole entry): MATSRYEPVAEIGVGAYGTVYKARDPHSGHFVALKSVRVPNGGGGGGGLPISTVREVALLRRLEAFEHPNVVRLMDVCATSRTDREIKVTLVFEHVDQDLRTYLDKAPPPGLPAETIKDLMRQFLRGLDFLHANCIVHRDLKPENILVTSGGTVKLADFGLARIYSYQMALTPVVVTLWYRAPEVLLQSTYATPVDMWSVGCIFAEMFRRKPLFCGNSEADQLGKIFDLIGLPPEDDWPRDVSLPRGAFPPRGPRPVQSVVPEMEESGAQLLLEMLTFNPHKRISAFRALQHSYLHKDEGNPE
Sequence of CDK4/cyclin D1 (P24385 whole entry partner): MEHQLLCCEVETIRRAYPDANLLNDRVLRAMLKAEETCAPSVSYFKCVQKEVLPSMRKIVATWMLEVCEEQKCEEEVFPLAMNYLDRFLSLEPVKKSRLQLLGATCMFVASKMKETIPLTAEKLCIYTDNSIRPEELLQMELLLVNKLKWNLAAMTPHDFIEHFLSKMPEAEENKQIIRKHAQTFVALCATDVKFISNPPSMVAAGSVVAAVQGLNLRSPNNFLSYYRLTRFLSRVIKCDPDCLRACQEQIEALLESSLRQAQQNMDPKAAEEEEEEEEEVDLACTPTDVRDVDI
Sequence of CDK1/cyclin B (P06493 whole entry, species assumed): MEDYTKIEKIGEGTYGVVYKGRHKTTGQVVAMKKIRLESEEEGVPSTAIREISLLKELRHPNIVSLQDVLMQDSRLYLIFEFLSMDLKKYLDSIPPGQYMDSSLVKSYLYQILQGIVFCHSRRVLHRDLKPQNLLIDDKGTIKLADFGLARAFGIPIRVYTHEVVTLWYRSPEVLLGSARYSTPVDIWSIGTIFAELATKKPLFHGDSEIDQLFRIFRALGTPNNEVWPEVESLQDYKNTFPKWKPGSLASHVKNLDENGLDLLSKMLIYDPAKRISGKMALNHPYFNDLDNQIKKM
Sequence of CDK1/cyclin B (P14635 whole entry partner, species assumed): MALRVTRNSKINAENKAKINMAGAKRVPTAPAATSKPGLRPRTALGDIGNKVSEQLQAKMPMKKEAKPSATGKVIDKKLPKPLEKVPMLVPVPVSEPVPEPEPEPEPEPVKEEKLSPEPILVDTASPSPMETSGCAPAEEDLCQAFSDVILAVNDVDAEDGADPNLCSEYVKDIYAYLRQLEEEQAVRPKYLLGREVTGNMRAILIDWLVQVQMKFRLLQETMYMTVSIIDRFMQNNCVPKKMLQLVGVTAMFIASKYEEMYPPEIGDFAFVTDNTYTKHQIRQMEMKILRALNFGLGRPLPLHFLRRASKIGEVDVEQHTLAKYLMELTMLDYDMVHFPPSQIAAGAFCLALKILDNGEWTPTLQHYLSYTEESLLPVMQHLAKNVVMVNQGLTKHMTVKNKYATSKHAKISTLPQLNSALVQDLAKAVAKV

In the case of `CN(C)C(=O)c1cc2cnc(Nc3ccc(N4CCN(CCO)CC4)cn3)nc2n1C1CCCC1` [Example 26, 7-Cyclopentyl-2-{5-[4-(2-hydroxy-ethyl)-piperazin-1-yl]-pyridin-2-ylamino}-7H-pyrrolo[2,3-d]pyrimidine-6-carboxylic acid dimethylamide], the IC50 is 0.01 to 0.1 µM in test [1] (setting [4]); 0.026 µM in test [1] (setting [5]); over 15 µM in test [2] (setting [6]); over 15 µM in test [2] (setting [7]); over 15 µM in test [3] (Table 2, read-out: CDK2); over 15 µM in test [3] (setting [8]).

Turning to `CC(C)N1CCN(c2ccc(Nc3ncc4cc(C(=O)N(C)C)n(C5CCCC5)c4n3)nn2)CC1` [Example 70, 7-Cyclopentyl-2-[6-(4-isopropyl-piperazin-1-yl)-pyridazin-3-ylamino]-7H-pyrrolo[2,3-d]pyrimidine-6-carboxylic acid dimethylamide], the IC50 is 0.01 to 0.1 µM in test [1] (setting [4]); over 15 µM in test [2] (setting [6]); over 15 µM in test [3] (Table 2, read-out: CDK2).

Regarding `CN(C)C(=O)c1cc2cnc(Nc3ccc(N4CCCNCC4)cn3)nc2n1C1CCCC1` [Example 8, 7-Cyclopentyl-2-(5-[1,4]diazepan-1-yl-pyridin-2-ylamino)-7H-pyrrolo[2,3-d]pyrimidine-6-carboxylic acid dimethylamide], the IC50 was 0.01 to 0.1 µM in test [1] (setting [4]); 14 µM in test [2] (setting [6]); 8 µM in test [3] (Table 2, read-out: CDK2).

Consider `CN(C)C(=O)c1cc2cnc(Nc3ccc(C4CCNCC4)cn3)nc2n1C1CCCC1` [Example 52, 7-Cyclopentyl-2-(1′,2′,3′,4′,5′,6-hexahydro-[3,4]bipyridinyl-6-ylamino)-7H-pyrrolo[2,3-d]pyrimidine-6-carboxylic acid dimethylamide], for which the IC50 is 0.01 to 0.1 µM in test [1] (setting [4]); over 15 µM in test [2] (setting [6]); over 15 µM in test [3] (Table 2, read-out: CDK2).

Regarding `CN(C)C(=O)c1cc2cnc(Nc3ccc(N4CCN(C[C@@H](O)CO)CC4)cn3)nc2n1C1CCCC1` [Example 46, 7-Cyclopentyl-2-{5-[4-((R)-2,3-dihydroxy-propyl)-piperazin-1-yl]-pyridin-2-ylamino}-7H-pyrrolo[2,3-d]pyrimidine-6-carboxylic acid dimethylamide], the IC50 was 0.01 to 0.1 µM in test [1] (setting [4]); over 15 µM in test [2] (setting [6]); over 15 µM in test [3] (Table 2, read-out: CDK2).

`CN(C)C(=O)c1cc2cnc(Nc3cnc(N4CCNCC4)cn3)nc2n1C1CCCC1` [Example 48, 7-Cyclopentyl-2-(3,4,5,6-tetrahydro-2-[1,2′]bipyrazinyl-5′-ylamino)-7H-pyrrolo[2,3-d]pyrimidine-6-carboxylic acid dimethylamide]: the IC50 was 0.1 to 1 µM in test [1] (setting [4]); over 15 µM in test [2] (setting [6]); over 15 µM in test [3] (Table 2, read-out: CDK2).

With `Cc1c(C(=O)N(C)C)n(C2CCCC2)c2nc(Nc3ccc(N4CCNCC4)cn3)ncc12` [Example 202, reference compound], the IC50 is 2.5 µM in test [1] (setting [5]), over 15 µM in test [2] (setting [7]) and over 15 µM in test [3] (setting [8]).

`CN(C)C(=O)c1cc2cnc(Nc3ccc(N4CCN(C[C@H](O)CO)CC4)cn3)nc2n1C1CCCC1` [Example 29, 7-Cyclopentyl-2-{5-[4-((S)-2,3-dihydroxy-propyl)-piperazin-1-yl]-pyridin-2-ylamino}-7H-pyrrolo[2,3-d]pyrimidine-6-carboxylic acid dimethylamide]: the IC50 in test [1] (setting [4]) is 0.01 to 0.1 µM; in test [2] (setting [6]) it was 15 µM; in test [3] (Table 2, read-out: CDK2) it was over 15 µM.

Regarding `CN(C)C(=O)c1cc2cnc(Nc3ccc(C(=O)N(C)CCN)cn3)nc2n1C1CCCC1` [Example 41, 2-{5-[(2-Amino-ethyl)-methyl-carbamoyl]-pyridin-2-ylamino}-7-cyclopentyl-7H-pyrrolo[2,3-d]pyrimidine-6-carboxylic acid dimethylamide], the IC50 in test [1] (setting [4]) was 0.001 to 0.01 µM; in test [2] (setting [6]), 14.8 µM; in test [3] (Table 2, read-out: CDK2), 4.7 µM.

The values are drawn from patent publication US8962630B2, “Pyrrolopyrimidine compounds and their uses” (Novartis AG, priority 2008, dated 2015).
